Experimental data reported in patent US12577245B2, “Sulfonyl benzamide derivatives as Bcl-2 inhibitors” (ASCENTAGE PHARMA (SUZHOU) CO., LTD., priority 2021, dated 2026).
Like-named read-outs stand apart in the source and are kept apart here.

Biological target: Bcl-2 G101V (Homo sapiens, UniProt P10415, G101V)
Assay: Bcl-2 G101V inhibition, fluorescence polarization (Flu-BIM tracer) binding assay
[1] = FP, 20 nM Bcl2, 5 nM Flu-BIM, 1 h incubation, read-out: Bcl-2 G101V (FP)

In the case of `Cc1sccc1C1=C(CN2CCN(c3ccc(C(=O)NS(=O)(=O)c4ccc(NCC5CCOCC5)c([N+](=O)[O-])c4)c(Oc4cnc5[nH]ccc5c4)c3)CC2)CCC(C)(C)C1` [Example 1, 2-((1H-pyrrolo[2,3-b]pyridin-5-yl)oxy)-4-(4-((4,4-dimethyl-2-(2-methylthiophen-3-yl)cyclohex-1-en-1-yl)methyl)piperazin-1-yl)-N-((3-nitro-4-(((tetrahydro-2H-pyran-4-yl)methyl)amino)phenyl)sulfonyl)benzamide], the IC50 [1] is reported as 32.7 nM.
`Cc1cscc1C1=C(CN2CCN(c3ccc(C(=O)NS(=O)(=O)c4ccc(NCC5CCOCC5)c([N+](=O)[O-])c4)c(Oc4cnc5[nH]ccc5c4)c3)CC2)CCC(C)(C)C1` [Example 2, 2-((1H-pyrrolo[2,3-b]pyridin-5-yl)oxy)-4-(4-((4,4-dimethyl-2-(4-methylthiophen-3-yl)cyclohex-1-en-1-yl)methyl)piperazin-1-yl)-N-((3-nitro-4-(((tetrahydro-2H-pyran-4-yl)methyl)amino)phenyl)sulfonyl)benzamide] showed an IC50 [1] of 32.6 nM.
For `CC1(C)CCC(CN2CCN(c3ccc(C(=O)NS(=O)(=O)c4ccc(NCC5CCOCC5)c([N+](=O)[O-])c4)c(Oc4cnc5[nH]ccc5c4)c3)CC2)=C(c2csc(C(F)(F)F)c2)C1` [Example 3, 2-((1H-pyrrolo[2,3-b]pyridin-5-yl)oxy)-4-(4-((4,4-dimethyl-2-(5-(trifluoromethyl)thiophen-3-yl)cyclohex-1-en-1-yl)methyl)piperazin-1-yl)-N-((3-nitro-4-(((tetrahydro-2H-pyran-4-yl)methyl)amino)phenyl)sulfonyl)benzamide], the IC50 [1] was 45.6 nM.
In the case of `Cc1ccc(C2=C(CN3CCN(c4ccc(C(=O)NS(=O)(=O)c5ccc(NCC6CCOCC6)c([N+](=O)[O-])c5)c(Oc5cnc6[nH]ccc6c5)c4)CC3)CCC(C)(C)C2)s1` [Example 6, 2-((1H-pyrrolo[2,3-b]pyridin-5-yl)oxy)-4-(4-((4,4-dimethyl-2-(5-methylthiophen-2-yl)cyclohex-1-en-1-yl)methyl)piperazin-1-yl)-N-((3-nitro-4-(((tetrahydro-2H-pyran-4-yl)methyl)amino)phenyl)sulfonyl)benzamide], the IC50 [1] is reported as 33.9 nM.
In the case of `CC(C)c1csc(C2=C(CN3CCN(c4ccc(C(=O)NS(=O)(=O)c5ccc(NCC6CCOCC6)c([N+](=O)[O-])c5)c(Oc5cnc6[nH]ccc6c5)c4)CC3)CCC(C)(C)C2)c1` [Example 8, 2-((1H-pyrrolo[2,3-b]pyridin-5-yl)oxy)-4-(4-((2-(4-isopropylthiophen-2-yl)-4,4-dimethylcyclohex-1-en-1-yl)methyl)piperazin-1-yl)-N-((3-nitro-4-(((tetrahydro-2H-pyran-4-yl)methyl)amino)phenyl)sulfonyl)benzamide], the IC50 [1] is reported as 30.9 nM.
Molecule `CC(C)c1csc(C2=C(CN3CCN(c4ccc(C(=O)NS(=O)(=O)c5ccc(NC[C@H]6COCCO6)c([N+](=O)[O-])c5)c(Oc5cnc6[nH]ccc6c5)c4)CC3)CCC(C)(C)C2)c1` [Example 10, (S)—N-((4-(((1,4-dioxan-2-yl)methyl)amino)-3-nitrophenyl)sulfonyl)-2-((1H-pyrrolo[2,3-b]pyridin-5-yl)oxy)-4-(4-((2-(4-isopropylthiophen-2-yl)-4,4-dimethylcyclohex-1-en-1-yl)methyl)piperazin-1-yl)benzamide] has an IC50 [1] of 27.7 nM.
`CC(C)c1sccc1C1=C(CN2CCN(c3ccc(C(=O)NS(=O)(=O)c4ccc(NCC5CCOCC5)c([N+](=O)[O-])c4)c(Oc4cnc5[nH]ccc5c4)c3)CC2)CCC(C)(C)C1` [Example 11, 2-((1H-pyrrolo[2,3-b]pyridin-5-yl)oxy)-4-(4-((2-(2-isopropylthiophen-3-yl)-4,4-dimethylcyclohex-1-en-1-yl)-methyl)piperazin-1-yl)-N-((3-nitro-4-(((tetrahydro-2H-pyran-4-yl)methyl)amino)-phenyl)sulfonyl)benzamide] showed an IC50 [1] of 37.6 nM.
`CC1(C)CCC(CN2CCN(c3ccc(C(=O)NS(=O)(=O)c4ccc(NC[C@H]5COCCO5)c([N+](=O)[O-])c4)c(Oc4cnc5[nH]ccc5c4)c3)CC2)=C(c2cc3c(s2)CCN(c2ccc(F)cc2)C3)C1` [Example 15, (S)—N-((4-(((1,4-dioxan-2-yl)methyl)amino)-3-nitrophenyl)sulfonyl)-2-((1H-pyrrolo[2,3-b]pyridin-5-yl)oxy)-4-(4-((2-(5-(4-fluorophenyl)-4,5,6,7-tetrahydrothieno[3,2-c]pyridin-2-yl)-4,4-dimethylcyclohex-1-en-1-yl)methyl)piperazin-1-yl)benzamide] showed an IC50 [1] of 65.1 nM.
In the case of `CC1(C)CCC(CN2CCN(c3ccc(C(=O)NS(=O)(=O)c4ccc(NC[C@H]5CC[C@](C)(O)CC5)c([N+](=O)[O-])c4)c(Oc4cnc5[nH]ccc5c4)c3)CC2)=C(c2cc3c(s2)CCN(c2ccc(F)cc2)C3)C1` [Example 16, 2-((1H-pyrrolo[2,3-b]pyridin-5-yl)oxy)-4-(4-((2-(5-(4-fluorophenyl)-4,5,6,7-tetrahydrothieno[3,2-c]pyridin-2-yl)-4,4-dimethylcyclohex-1-en-1-yl)methyl)piperazin-1-yl)-N-((4-((((1r,4r)-4-hydroxy-4-methylcyclohexyl)methyl)amino)-3-nitrophenyl)sulfonyl)benzamide], the IC50 [1] is reported as 94.7 nM.
For `CC1(C)CCC(CN2CCN(c3ccc(C(=O)NS(=O)(=O)c4ccc(NC[C@H]5COCCO5)c([N+](=O)[O-])c4)c(Oc4cnc5[nH]ccc5c4)c3)CC2)=C(c2cc(C(=O)Nc3ccccc3)cs2)C1` [Example 17, (S)-5-(2-((4-(4-(((4-(((1,4-dioxan-2-yl)methyl)amino)-3-nitrophenyl)sulfonyl)carbamoyl)-3-((1H-pyrrolo[2,3-b]pyridin-5-yl)oxy)phenyl)piperazin-1-yl)methyl)-5,5-dimethylcyclohex-1-en-1-yl)-N-phenylthiophene-3-carboxamide], the IC50 was 49.5 nM.
Work on `CC1(C)CCC(CN2CCN(c3ccc(C(=O)NS(=O)(=O)c4ccc(NC[C@H]5COCCO5)c([N+](=O)[O-])c4)c(Oc4cnc5[nH]ccc5c4)c3)CC2)=C(c2cc(NC(=O)c3ccccc3)cs2)C1` [Example 18, (S)—N-((4-(((1,4-dioxan-2-yl)methyl)amino)-3-nitrophenyl)sulfonyl)-2-((1H-pyrrolo[2,3-b]pyridin-5-yl)oxy)-4-(4-((2-(4-benzamidothiophen-2-yl)-4,4-dimethylcyclohex-1-en-1-yl)methyl)piperazin-1-yl)benzamide] yielded an IC50 [1] of 66.3 nM.
In the case of `CC1(C)CCC(CN2CCN(c3ccc(C(=O)NS(=O)(=O)c4ccc(NC[C@H]5COCCO5)c([N+](=O)[O-])c4)c(Oc4cnc5[nH]ccc5c4)c3)CC2)=C(c2cc(Nc3ncccn3)cs2)C1` [Example 19, (S)—N-((4-(((1,4-dioxan-2-yl)methyl)amino)-3-nitrophenyl)sulfonyl)-2-((1H-pyrrolo[2,3-b]pyridin-5-yl)oxy)-4-(4-((4,4-dimethyl-2-(4-(pyrimidin-2-ylamino)thiophen-2-yl)cyclohex-1-en-1-yl)methyl)piperazin-1-yl)benzamide], the IC50 [1] is reported as 40.9 nM.
For `CC1(C)CCC(CN2CCN(c3ccc(C(=O)NS(=O)(=O)c4ccc(NCC5CCOCC5)c([N+](=O)[O-])c4)c(Oc4cnc5[nH]ccc5c4)c3)CC2)=C(c2csc(CN3CCOCC3)c2)C1` [Example 21, 2-((1H-pyrrolo[2,3-b]pyridin-5-yl)oxy)-4-(4-((4,4-dimethyl-2-(5-(morpholinomethyl)thiophen-3-yl)cyclohex-1-en-1-yl)methyl)piperazin-1-yl)-N-((3-nitro-4-(((tetrahydro-2H-pyran-4-yl)methyl)amino)phenyl)sulfonyl)benzamide], the IC50 [1] was 64.2 nM.
